Laboratory results from patent US20090074815A1, “Immunomodulator Compounds as Vaccine Enhancers” (SCICLONE PHARMACEUTICALS, INC., priority 2005, published 2009).
Several values for one entry are separate records, joined by “and”; a condition that tells them apart may be missing. Equal values may be shown once. Read-outs that look alike come from different tables or passages of the source. Marks after values point to notes of the source that are not given here.

Key:
[1] = system: bone marrow cells; assay: Expression of Thy1 marker by bone marrow cells (flow cytometry) after SCV-07 treatment; assay type: in vivo, mice
Excerpt: Materials and Methods: Eighteen (18) to twenty (20) gram (g) male mice, purchased from the Rappolovo Animal Facility, Russia, were used in the studies described below. C57BL/6 (B6) mice were used to evaluate the effect of SCV-07 in non-immunized mice. CBAxC57BL/6 (F1) mice were used for studies of the effects of SCV-07 on the antigen-specific immune response. Mice were kept under the standard animal facility conditions and were provided with a standard diet and water ad libitum. Each treatment group included 4-5 mice. […] A suspension containing filling agents alone, which corresponded to the maximum amount of filling agents in the doses of SCV-07 administered to experimental animals, was used a control. Thigh bones were removed from treated mice under aseptic conditions, and the medullary cavities were […] washed with PBS. Fragments of the bone marrow were minced by passing the tissue through a syringe needle. The resulting cell suspension was filtered through a double gauze layer and washed in PBS. After erythrocytes were lysed, the cells were counted and transferred to flat bottom culture plates. Due to an almost complete lack of spontaneous proliferation, the absolute values of proliferation, which were expressed as counts per minute (CPM), were determined and the Con A-induced proliferation of thymic cells from animals of different groups were compared. Analysis by Flow Cytometry: […] Immunomodulatory Activity of SCV-07 After Oral Administration: Thy1-positive lymphocytes, the precursors of T-cells in the bone marrow, increased in a dose-dependent manner in mice after treatment with SCV-07 per os. These increases were analogous to those observed in mice which received SCV-07 i.p (Table 2).

[2] = system: M. tuberculosis strain H37Rv; assay type: in vivo, mice; details: for CFUs of BCG per ml of Lung Homogenate, MEAN / CFUs of BCG per ml of Lung Homogenate, MEDIAN / CFUs of BCG per ml of Lung Homogenate, individual mice M1-M5: day 61
[3] = system: HBsAg; assay type: in vivo, human; details: one month after the end of vaccination
[4] = group 3: BCG + 0.01 μg SCV-07 D1-D5
[5] = group 4: BCG + 0.01 μg SCV-07 D1-D30
[6] = group 5: BCG + 0.01 μg SCV-07 D1-5, D7, 11, 14, 18, 21, 25, 28
[7] = group 6: BCG + 0.01 μg SCV-07 D6-D30
[8] = group 7: BCG + 0.20 μg SCV-07 D1-D5
[9] = group 8: BCG + 0.20 μg SCV-07 D1-D30
[10] = group 9: BCG + 0.20 μg SCV-07 D1-5, D7, 11, 14, 18, 21, 25, 28
[11] = group 10: BCG + 0.20 μg SCV-07 D6-D30
[12] = group 11: BCG + 2.0 μg SCV-07 D1-D5
[13] = group 12: BCG + 2.0 μg SCV-07 D1-D30
[14] = group 13: BCG + 2.0 μg SCV-07 D1-5, D7, 11, 14, 18, 21, 25, 28
[15] = group 14: BCG + 2.0 μg SCV-07 D6-D30

SMILES: N[C@H](CCC(=O)N[C@@H](Cc1c[nH]c2ccccc12)C(=O)O)C(=O)O [SCV-07, γ-D-glutamyl-L-tryptophan]
- Thy-1 positive cells, % ([1]; 0.1 μg/kg per os): 12.9 ± 1.2%
- Thy-1 positive cells, % ([1]; 1.0 μg/kg i/p): 15.4 ± 0.1%
- Thy-1 positive cells, % ([1]; 1.0 μg/kg per os): 14.9 ± 1.3%
- Thy-1 positive cells, % ([1]; 10.0 μg/kg per os): 16.0 ± 0.7%
- Thy-1 positive cells, % ([1]; 100.0 μg/kg per os): 16.0 ± 1.2%
- dose with optimal enhancing effect of SCV-07 for vaccination with BCG ([2]; about 8-10 μg/kg): 0.20 µg
- CFUs of BCG per ml of Lung Homogenate, MEAN [2, 4]: 5.0 log10 CFU per milliliter
- CFUs of BCG per ml of Lung Homogenate, MEDIAN [2, 4]: 4.9 log10 CFU per milliliter
- CFUs of BCG per ml of Lung Homogenate, individual mice M1-M5 [2, 4]: 4.8 log10 CFU per milliliter (2×) and 5.3 log10 CFU per milliliter (2×) and 4.9 log10 CFU per milliliter
- CFUs of BCG per ml of Lung Homogenate, MEAN [2, 5]: 4.8 log10 CFU per milliliter
- CFUs of BCG per ml of Lung Homogenate, MEDIAN [2, 5]: 4.9 log10 CFU per milliliter
- CFUs of BCG per ml of Lung Homogenate, individual mice M1-M5 [2, 5]: 5.1 log10 CFU per milliliter and 4.8 log10 CFU per milliliter and 5.0 log10 CFU per milliliter and 4.3 log10 CFU per milliliter
- CFUs of BCG per ml of Lung Homogenate, MEAN [2, 6]: 4.9 log10 CFU per milliliter
- CFUs of BCG per ml of Lung Homogenate, MEDIAN [2, 6]: 5.0 log10 CFU per milliliter
- CFUs of BCG per ml of Lung Homogenate, individual mice M1-M5 [2, 6]: 5.1 log10 CFU per milliliter (2×) and 5.0 log10 CFU per milliliter and 4.6 log10 CFU per milliliter and 4.8 log10 CFU per milliliter
- CFUs of BCG per ml of Lung Homogenate, MEAN [2, 7]: 5.5 log10 CFU per milliliter
- CFUs of BCG per ml of Lung Homogenate, MEDIAN [2, 7]: 5.5 log10 CFU per milliliter
- CFUs of BCG per ml of Lung Homogenate, individual mice M1-M5 [2, 7]: 5.4 log10 CFU per milliliter and 5.5 log10 CFU per milliliter (2×) and 5.7 log10 CFU per milliliter
- CFUs of BCG per ml of Lung Homogenate, MEAN [2, 8]: 4.9 log10 CFU per milliliter
- CFUs of BCG per ml of Lung Homogenate, MEDIAN [2, 8]: 5.0 log10 CFU per milliliter
- CFUs of BCG per ml of Lung Homogenate, individual mice M1-M5 [2, 8]: 4.8 log10 CFU per milliliter (2×) and 5.0 log10 CFU per milliliter (2×) and 5.1 log10 CFU per milliliter
- CFUs of BCG per ml of Lung Homogenate, MEAN [2, 9]: 4.6 log10 CFU per milliliter
- CFUs of BCG per ml of Lung Homogenate, MEDIAN [2, 9]: 4.6 log10 CFU per milliliter
- CFUs of BCG per ml of Lung Homogenate, individual mice M1-M5 [2, 9]: 4.5 log10 CFU per milliliter and 4.7 log10 CFU per milliliter (2×) and 4.6 log10 CFU per milliliter
- CFUs of BCG per ml of Lung Homogenate, MEAN [2, 10]: 4.8 log10 CFU per milliliter
- CFUs of BCG per ml of Lung Homogenate, MEDIAN [2, 10]: 4.8 log10 CFU per milliliter
- CFUs of BCG per ml of Lung Homogenate, individual mice M1-M5 [2, 10]: 4.6 log10 CFU per milliliter and 4.4 log10 CFU per milliliter and 4.9 log10 CFU per milliliter and 5.1 log10 CFU per milliliter and 4.8 log10 CFU per milliliter
- CFUs of BCG per ml of Lung Homogenate, MEAN [2, 11]: 5.3 log10 CFU per milliliter
- CFUs of BCG per ml of Lung Homogenate, MEDIAN [2, 11]: 5.3 log10 CFU per milliliter
- CFUs of BCG per ml of Lung Homogenate, individual mice M1-M5 [2, 11]: 5.4 log10 CFU per milliliter and 5.2 log10 CFU per milliliter
- CFUs of BCG per ml of Lung Homogenate, MEAN [2, 12]: 5.0 log10 CFU per milliliter
- CFUs of BCG per ml of Lung Homogenate, MEDIAN [2, 12]: 5.1 log10 CFU per milliliter
- CFUs of BCG per ml of Lung Homogenate, individual mice M1-M5 [2, 12]: 5.1 log10 CFU per milliliter (3×) and 4.8 log10 CFU per milliliter (2×)
- CFUs of BCG per ml of Lung Homogenate, MEAN [2, 13]: 5.0 log10 CFU per milliliter
- CFUs of BCG per ml of Lung Homogenate, MEDIAN [2, 13]: 5.1 log10 CFU per milliliter
- CFUs of BCG per ml of Lung Homogenate, individual mice M1-M5 [2, 13]: 5.1 log10 CFU per milliliter and 4.8 log10 CFU per milliliter and 5.3 log10 CFU per milliliter (2×) and 4.6 log10 CFU per milliliter
- CFUs of BCG per ml of Lung Homogenate, MEAN [2, 14]: 4.9 log10 CFU per milliliter
- CFUs of BCG per ml of Lung Homogenate, MEDIAN [2, 14]: 4.8 log10 CFU per milliliter
- CFUs of BCG per ml of Lung Homogenate, individual mice M1-M5 [2, 14]: 4.8 log10 CFU per milliliter (2×) and 4.7 log10 CFU per milliliter and 5.1 log10 CFU per milliliter and 5.3 log10 CFU per milliliter
- CFUs of BCG per ml of Lung Homogenate, MEAN [2, 15]: 5.4 log10 CFU per milliliter
- CFUs of BCG per ml of Lung Homogenate, MEDIAN [2, 15]: 5.4 log10 CFU per milliliter
- CFUs of BCG per ml of Lung Homogenate, individual mice M1-M5 [2, 15]: 5.3 log10 CFU per milliliter (2×) and 5.4 log10 CFU per milliliter and 5.5 log10 CFU per milliliter
- Antibodies to HBsAg not detected, % ([3]; Group 2, SCV-07, n = 32): 3.1** %
- Antibodies to HBsAg not detected, Abs ([3]; Group 2, SCV-07, n = 32): 1
- Protective titer against HBsAg (>10 mMU/mL), % ([3]; Group 2, SCV-07, n = 32): 96.9%
- Protective titer against HBsAg (>10 mMU/mL), Abs ([3]; Group 2, SCV-07, n = 32): 31
- Antibodies to HBsAg not detected, % ([3]; Group 3, healthy, n = 33): 6.1* %
- Antibodies to HBsAg not detected, Abs ([3]; Group 3, healthy, n = 33): 2
- Protective titer against HBsAg (>10 mMU/mL), % ([3]; Group 3, healthy, n = 33): 93.9%
- Protective titer against HBsAg (>10 mMU/mL), Abs ([3]; Group 3, healthy, n = 33): 31
